Blank lines part the entries; values can stand above or below the compound they belong to.
Tests used:
[1] = test system: HEK293/EBNA cells; experiment: IP accumulation (IP-One HTRF) in untransduced HEK-293/EBNA cells; format: cell-based; conditions: for EC50 IP: HEK293/EBNA untransduced
[2] = target: T1, α1A-AR (Homo sapiens, UniProt P35348); experiment: Translocation of GFP-tagged β-arrestin-1/2 in HEK293 cells expressing FLAG-α1A-AR (confocal microscopy); format: cell-based; parameters: expressed in transfected cells; host or cells: HEK-293/EBNA (baculovirus transduction, NaBu induction); conditions: HEK293, 1 μM A-61603 or 1 mM Iso
T1 sequence (P35348 1-466): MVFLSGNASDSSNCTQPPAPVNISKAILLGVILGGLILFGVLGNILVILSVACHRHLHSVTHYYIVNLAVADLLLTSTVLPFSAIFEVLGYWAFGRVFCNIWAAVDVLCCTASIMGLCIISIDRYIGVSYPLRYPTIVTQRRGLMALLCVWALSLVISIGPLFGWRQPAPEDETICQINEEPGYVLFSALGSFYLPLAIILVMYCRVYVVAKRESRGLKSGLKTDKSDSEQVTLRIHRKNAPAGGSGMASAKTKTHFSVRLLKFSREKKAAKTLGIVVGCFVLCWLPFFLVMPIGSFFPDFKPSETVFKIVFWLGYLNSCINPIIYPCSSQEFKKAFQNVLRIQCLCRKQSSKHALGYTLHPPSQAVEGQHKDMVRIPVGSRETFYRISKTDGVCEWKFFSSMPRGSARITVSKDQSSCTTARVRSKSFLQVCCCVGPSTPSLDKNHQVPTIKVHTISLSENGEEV
Experimental: HEK293 cells were transiently co-transfected with FLAG-tagged α1A – AR and one of the following GFP-tagged proteins: Rab5 (Rab5 Q79L) variant, Rab11 (Rab11 S25N) variant, β-arrestin-1 or β-arrestin-2. Rab5 and Rab11 were kindly provided by Dr. Marino Zerial (Max Planck Institute of Molecular Cell Biology and Genetics, Dresden, Germany). […] After treatment, cells were fixed with freshly prepared 3.7% paraformaldehyde in PBS for 15 min at room temperature. Subsequently, cells were permeabilized with 0.1% Triton X-100 (Sigma-Aldrich) in PBS for 5 min, followed by nonspecific binding site blocking with 3% normal serum (Santa Cruz Biotechnology) in PBS for 1 h. Incubation with Alexa Fluor-568 conjugated anti-FLAG antibodies in blocking solution was done as directed by the manufacturer. Confocal microscopy was performed using a Zeiss LSM 510 META laser scanning microscope (Carl Zeiss, Inc., Thornwood, NY) equipped with a 60X objective, using the following laser wavelengths: excitation at 488 nm and emission at 505–530 nm; excitation at 543 nm and emission at 560–615 nm.
HEK293 cells were co-transfected with FLAG-tagged α1A – AR and GFP- tagged β-arrestin-1 (left panels) or β-arrestin-2 (right panels). […] Cells were then fixed, permeabilized, stained with Alexa Fluor-568 conjugated anti-FLAG antibodies, and analyzed employing confocal microscopy.

[3] = target: T2, β2-AR (Homo sapiens, UniProt P07550); conditions: HEK293/EBNA; read-out: EC50 Ca2+; cited from earlier work
T2 construct: HEK-293/EBNA cells are known to express β2-AR endogenously; endogenous in cells; host or cells: HEK-293/EBNA (untransduced or negative-control transduced)

[4] = target: T2, β2-AR; experiment: MAPK activation (AlphaScreen SureFire p-ERK) in untransduced HEK-293/EBNA cells; format: cell-based; conditions: HEK293/EBNA
[5] = target: T1, α1A-AR; experiment: MAPK activation (AlphaScreen SureFire p-ERK) in α1A-AR transduced HEK-293/EBNA cells; format: cell-based; parameters: expressed in transfected cells; host or cells: HEK-293/EBNA (baculovirus transduction, NaBu induction)
Experimental: (§1) Prior to experiments, cells were transduced with baculovirus strains designed for transient expression of α1A-AR or aldehyde oxidase (negative control). This was performed by incubating cells with virus (MOI 100–150) for 3 to 4 h, followed by exchange into fresh serum free growth medium supplemented with 4 mM sodium butyrate (NaBu). Cells were grown for another 14 to 18 h and then examined for agonist-evoked responses in transient Ca^2+ release, IP accumulation or pERK activation assays. The surface receptor expression density was determined by flow cytometry via immunofluorescence labeling of an N-terminal HA epitope tag on the receptor and radioligand binding in partially purified membranes.
Graphs shown reflect either pooled or representative data (see figure legends). For concentration-response analysis, results from Ca^2+ mobilization experiments were plotted as ΔF/F0 vs. agonist concentration and fit to a sigmoidal concentration-response equation using the GraphPad Prism software package. […] For radioligand binding experiments, B max values were calculated from maximum binding using the equation B max = (SB × ([…] + [L])/[L]), where SB is the specific binding expressed as fmol per mg of membrane protein, and [L] is the ligand concentration.

[6] = target: T2, β2-AR; experiment: cAMP accumulation in untransduced HEK-293/EBNA cells; format: cell-based; conditions: HEK293/EBNA
[7] = target: T1, α1A-AR; experiment: LC-MS detection of IP1, IP2 and IP3 in α1A-AR_CHO stable cells; format: cell-based; parameters: expressed in transfected cells; conditions: α1A-AR CHO, Iso up to 1 mM
Experimental: (§2) After that, the medium was replaced with agonist solution in assay buffer (20 mM HEPES, 10 mM glucose, 1.8 mM CaCl2, 0.5 mM MgSO4, in HBSS 1X buffer, 50 mM LiCl) and cells were incubated at 37°C for 30 min. Stimulation was stopped by exchange of assay buffer with lysis buffer (100 μL 0.1N HCl/MeOH), and lysis proceeded for 30 min at 4°C. Cellular levels of inositol phosphates were determined using a Thermo LC-MS detection system following a published protocol. Chromatography was performed employing a BioBasic column AX (50 × 2.1 mm, Thermo). The mobile phase consisted of solvent A: 10 mM ammonium acetate, pH 6 in 30/70 acetonitrile/water, and solvent B: 1 mM ammonium acetate, pH 11 in 30/70 acetonitrile/water. A gradient solvent system was used starting with 0% solvent B, and analytes were eluted by increasing solvent B to 100% over 3 min. Each data point represents the average of triplicate determinations and each experiment was performed at least three times independently.
IP1, IP2, and IP3 levels were determined via LC-MS. Plots are representative of three independent experiments with each data point being the average of triplicates.

[8] = target: T2, β2-AR; conditions: HEK293/EBNA; [125I-CYP] used as radioligand (footnote 1a); cited from earlier work
[9] = target: T1, α1A-AR; experiment: LC-MS detection of IP1, IP2 and IP3 in α1A-AR transduced HEK-293/EBNA cells; format: cell-based; parameters: expressed in transfected cells; host or cells: HEK-293/EBNA (baculovirus transduction, NaBu induction); conditions: Iso up to 10 mM
Experimental: as §2, with “Virally transduced HEK-293/EBNA cells were resuspended in growth medium and seeded in poly-D-lysine coated 96-well black plates at a density of 100,000 cells/0.1 mL per well, Cells were allowed to attach for 2 hours at 37°C in a humidified atmosphere of 95% air and 5% CO2. After” for “After”

[10] = test system: α1A-AR; experiment: Ca2+ transient response (FLIPR, fluo3) in α1A-AR transduced HEK-293/EBNA cells; format: cell-based; conditions: α1A-AR HEK-293/EBNA; for effect of antagonist on Iso-evoked Ca2+ response: RS100329 10 nM, ICI 118551 10 nM, atenolol 1 μM
Experimental: as §1
(§3) Cells were resuspended in Hank’s balanced salt solution (Invitrogen) supplemented with 2 mM CaCl2, 10 mM HEPES pH 7.4, 2.5 mM probenecid, plus 1g/L each of glucose and bovine serum albumin (BSA), and seeded in poly-D-lysine coated 96-well black plates with transparent bottom (Costar) at a density of 50,000 cells/0.1 mL per well. Cells were then incubated for 1 h at 37°C with an additional 0.1 mL of buffer containing 4 μM fluo3-AM that was diluted from a stock solution containing 1 mM fluo3-AM dye in DMSO with 10% pluronic acid. After dye loading incubation, plates were washed twice with 100 μL of buffer and refilled with 100 μL of assay buffer. In experiments testing the effect of antagonists, 25 μL of buffer from wells of washed cells were replaced with 25 μL of vehicle or 4× antagonist solution. Pre-incubation of ligand with dye-loaded cells proceeded for 5–30 minutes immediately prior to measurements of agonist-evoked responses. Agonist-evoked Ca^2+ mobilization responses of cell populations were monitored at room temperature simultaneously in all wells of the assay plate using the plate-imaging fluorometric reader FLIPR (MDS Analytical Technologies, Sunnyvale, CA). […] The amplitudes of Ca^2+ transient responses are reported as ΔF/F0, or fold-change in Ca^2+ dye fluorescence relative to the baseline signal ΔF/F0 = (F-F0)/F0 +1 (where ΔF is maximal fluorescence intensity observed following agonist application, F0 = baseline fluorescence, or average intensity measured over the 10 s interval prior to agonist application). Image acquisition rates were varied from 1 Hz during the first 100 s of measurements to 0.5 Hz for the remaining time of the recording.
(§4) Graphs shown reflect either pooled or representative data (see figure legends). For concentration-response analysis, results from Ca^2+ mobilization experiments were plotted as ΔF/F0 vs. agonist concentration and fit to a sigmoidal concentration-response equation using the GraphPad Prism software package. In cases where biphasic concentration-response curves were observed data were fit to a two-site concentration-response model: F(X)=R0+(Rmax−R0)[Fr1/(1+10^X-logEC50,1)+(1−Fr1)/(1+10^X-logEC50,2)] (1) , where X is the logarithm of the agonist concentration, R0 and Rmax are respectively the response minimum and maximum; Fr1 is the response fraction attributable to receptor characterized by half effective concentration of the first response phase (EC50,1), with the reminder response attributable to the second half effective concentration (EC50,2). For radioligand binding experiments, B max values were calculated from maximum binding using the equation B max = (SB × ([…] + [L])/[L]), where SB is the specific binding expressed as fmol per mg of membrane protein, and [L] is the ligand concentration.

[11] = target: T1, α1A-AR; experiment: as above; format: cell-based; parameters: expressed in transfected cells; host or cells: HEK-293/EBNA (baculovirus transduction, NaBu induction); conditions: 100 nM NE, α1A-AR_HEK-293/EBNA
Experimental: as §1, §3, §4

[12] = target: T1, α1A-AR; experiment: IP accumulation (IP-One HTRF) in α1A-AR transduced HEK-293/EBNA cells; format: cell-based; parameters: expressed in transfected cells; host or cells: HEK-293/EBNA (baculovirus transduction, NaBu induction); conditions: 10 nM antagonist preincubation; large rightward shift in A-61603 potency
Experimental: as §1
After 10–20 minutes, 10 μL of agonist was added followed by incubation for 5 to 30 minutes. Stimulation was stopped by addition of lysis buffer. Second messenger levels were determined using a homogeneous immunoassay method with time-resolved FRET detection (IP-One HTRF, Cisbio International) according to protocols provided by the supplier. Sample fluorescence was measured with a Nanoscan plate reader (IOM, Berlin). Each data point represents the average of quadruplicate determinations and each experiment was performed at least two times independently.

[13] = target: T1, α1A-AR; experiment: Ca2+ transient response (FLIPR) in α1A-AR_CHO stable cells; format: cell-based; parameters: expressed in transfected cells; conditions: antagonist at 100 nM
Experimental: as §3, with “In experiments testing the effect of antagonists, 25 μL of buffer from wells of washed cells were replaced with 25 μL of vehicle or 4× antagonist solution. Pre-incubation of ligand with dye-loaded cells proceeded for 5–30 minutes immediately prior to measurements of agonist-evoked responses.” left out, “Image acquisition rates were varied from 1 Hz during the first 100 s of measurements to 0.5 Hz for the remaining time of the recording.” left out
IP1, IP2, and IP3 levels were determined via LC-MS. […]

[14] = target: T2, β2-AR; experiment: Ca2+ transient response (FLIPR, fluo3) in untransduced / negative control HEK-293/EBNA cells; format: cell-based; conditions: non-transduced control cells; ICI 118551 10 nM, RS100329 10 nM, atenolol 1 μM
Experimental: as §1
Cells were resuspended in Hank’s balanced salt solution (Invitrogen) supplemented with 2 mM CaCl2, 10 mM HEPES pH 7.4, 2.5 mM probenecid, plus 1g/L each of glucose and bovine serum albumin (BSA), and seeded in poly-D-lysine coated 96-well black plates with transparent bottom (Costar) at a density of 50,000 cells/0.1 mL per well. […] Agonist-evoked Ca^2+ mobilization responses of cell populations were monitored at room temperature simultaneously in all wells of the assay plate using the plate-imaging fluorometric reader FLIPR (MDS Analytical Technologies, Sunnyvale, CA). […]

[15] = test system: α1A-AR; conditions: for α1A-AR; cited from earlier work

T2 sequence (P07550 whole entry): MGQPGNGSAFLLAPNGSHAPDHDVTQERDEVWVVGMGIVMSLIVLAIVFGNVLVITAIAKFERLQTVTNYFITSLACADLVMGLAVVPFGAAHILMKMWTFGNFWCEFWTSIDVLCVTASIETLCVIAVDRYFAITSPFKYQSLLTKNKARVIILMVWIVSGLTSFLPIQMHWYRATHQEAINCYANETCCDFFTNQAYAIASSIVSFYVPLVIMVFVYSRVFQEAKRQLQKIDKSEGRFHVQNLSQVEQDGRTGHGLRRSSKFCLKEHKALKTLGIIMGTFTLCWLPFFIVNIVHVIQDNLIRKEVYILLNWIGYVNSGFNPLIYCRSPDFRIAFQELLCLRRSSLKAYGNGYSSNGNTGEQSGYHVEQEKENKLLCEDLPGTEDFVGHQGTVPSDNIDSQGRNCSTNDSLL

SMILES: CS(=O)(=O)Nc1c(O)ccc2c1CCCC2C1=NCCN1 (stereo not drawn) [A-61603]
EC50 IP [1]: BQL
IP formation ([1]; untransduced cells, data not shown): not detectable
translocation of β-arrestin-1 / β-arrestin-2 [2]: did not induce significant translocation
EC50 [3]: 0.003 µM
EC50 p-ERK [4]: BQL
times more potent at inducing p-ERK formation than Ca2+ mobilization ([5]; α1A-AR transduced HEK-293/EBNA): ~4 times
EC50 cAMP [6]: BQL
cellular concentration of inositol phosphates IP1, IP2 and IP3 [7]: concentration-dependent increases
Ki [8]: 24 µM
cellular levels of inositol phosphates IP1, IP2 and IP3 [9]: concentration-dependent increases

effect of EGFR inhibition on Iso induced α1A-AR stimulation of ERK1/2 ([5]; data not shown): not affected
SMILES: COc1cc2ncnc(Nc3cccc(Cl)c3)c2cc1OC [AG1478]

SMILES: Cc1ccc(OCC(O)C(C)NC(C)C)c2c1CCC2 (stereo not drawn) [ICI 118551]
attenuation of responses to high Iso concentrations ([10]; ICI 118551 at 10 nM): ~50%
effect of antagonist on Iso-evoked Ca2+ response [10]: abolished responses to low Iso concentrations

SMILES: NC[C@H](O)c1ccc(O)c(O)c1 [NE, norepinephrine]
EC50 IP [1]: BQL
time to peak response amplitude post-agonist addition [11]: ≤ 10 s
cellular concentration of inositol phosphates IP1, IP2 and IP3 [7]: concentration-dependent increases
cellular levels of inositol phosphates IP1, IP2 and IP3 [9]: concentration-dependent increases

effect of antagonist on A-61603-stimulated IP accumulation [12]: significantly attenuated IP accumulation
effect of antagonist pretreatment on Iso Ca2+ response [13]: blocked
effect of antagonist on Iso-evoked Ca2+ response [14]: ineffective
SMILES: Cc1c[nH]c(=O)n(CCCN2CCN(c3ccccc3OCC(F)(F)F)CC2)c1=O [RS100329]
effect of antagonist on Iso-evoked Ca2+ response [10]: virtually complete blocking of the low potency phase
pKB [15]: 9.6

SMILES: CC(C)NCC(O)COc1ccc(CC(N)=O)cc1 (stereo not drawn) [atenolol]
effect of antagonist on Iso-evoked Ca2+ response [10]: had no effect

effect of antagonist pretreatment on Iso Ca2+ response [13]: insensitive
SMILES: CC(C)NCC(O)COc1cccc2ccccc12 (stereo not drawn) [propranolol]
